How the values were obtained:
[1] = test system: Magnaporthe grisea (Pyricularia oryzae); assay: microbe, parasite or virus in culture; format: cell-based; details: read-out: control of Magnaporthe grisea
Sclerotinia sclerotiorum = assay: Sclerotinia sclerotiorum/Liquid Culture (Cottony Rot); format: cell-based; details: liquid culture, growth inhibition photometrically 3-4 days after application, compared to untreated control
Experimental: Sclerotinia sclerotiorum/Liquid Culture (Cottony Rot)
(§1) Mycelia fragments of a newly grown liquid culture of the fungus are directly mixed into nutrient broth (Vogels broth). After placing a (DMSO) solution of test compound into a microtiter plate (96-well format) the nutrient broth containing the fungal material is added. The test plates are incubated at 24° C. and the inhibition of growth is determined photometrically 3-4 days after application.

[2] = test system: Botryotinia fuckeliana (Botrytis cinerea); assay: Botryotinia fuckeliana (Botrytis cinerea)/Liquid Culture (Gray Mould); format: cell-based; details: liquid culture, growth inhibition photometrically 3-4 days after application, compared to untreated control
Experimental: Biological Examples Botryotinia fuckeliana (Botrytis cinerea)/Liquid Culture (Gray Mould)
as §1, with “Conidia” for “Mycelia fragments of a newly grown liquid culture”, “fungus from cryogenic storage” for “fungus”, “format),” for “format)”, “spores” for “material”

[3] = test system: Glomerella lagenarium (Colletotrichum lagenarium); assay: Glomerella Lagenarium (Colletotrichum Lagenarium)/Liquid Culture (Anthracnose); format: cell-based; details: Colletotrichum orbiculare, liquid culture, growth inhibition photometrically 3-4 days after application, compared to untreated control
Experimental: Glomerella Lagenarium (Colletotrichum Lagenarium)/Liquid Culture (Anthracnose)
(§2) Conidia of the fungus from cryogenic storage are directly mixed into nutrient broth (PDB potato dextrose broth). After placing a (DMSO) solution of test compound into a microtiter plate (96-well format), the nutrient broth containing the fungal spores is added. The test plates are incubated at 24° C. and the inhibition of growth is measured photometrically 3-4 days after application.

[4] = test system: Monographella nivalis (Microdochium nivale); assay: Monographella Nivalis (Microdochium Nivale)/Liquid Culture (Foot Rot Cereals); format: cell-based; details: liquid culture, growth inhibition photometrically 4-5 days after application, compared to untreated control
Experimental: Monographella Nivalis (Microdochium Nivale)/Liquid Culture (Foot Rot Cereals)
as §2, with “determined” for “measured”, “4-5” for “3-4”

Row | Compound | melting point [°C] | inhibition of growth at 20 ppm [1] [%] | inhibition of growth at 20 ppm (Sclerotinia sclerotiorum) [%] | inhibition of growth at 20 ppm [2] [%] | inhibition of growth at 20 ppm [3] [%] | inhibition of growth at 20 ppm [4] [%]
1 | Cn1nc2c(Br)cccc2c1C1=NC(C)(C)C(O)c2ccccc21 (stereo not shown) | 215 to 217 | – | – | – | – | –
2 | Cn1nc2c(Br)cccc2c1C1=NC(C)(C)C(O)c2c(F)cccc21 (stereo not shown) | 103 to 105 | – | – | – | – | –
3 | Cn1nc2ccccc2c1C1=NC(C)(C)C(=O)c2ccccc21 | 169 to 170 | – | – | – | – | –
4 | Cn1nc2ccccc2c1C1=NC(C)(C)C(Br)c2ccccc21 (stereo not shown) | 165 to 166 | – | – | – | – | –
5 | Cn1nc2ccccc2c1C1=NC(C)(C)Cc2ccccc21 [Compound E-2, 3,3-dimethyl-1-(2-methylindazol-3-yl)-4H-isoquinoline] | 107 to 108 | ≥ 80 | ≥ 80 | ≥ 80 | ≥ 80 | ≥ 80
6 | Cn1nc2c(Br)cccc2c1C1=NC(C)(C)C(=O)c2ccccc21 [Compound E-6, 1-(7-bromo-2-methyl-indazol-3-yl)-3,3-dimethyl-isoquinolin-4-one] | – | ≥ 80 | – | ≥ 80 | – | ≥ 80
7 | Cn1nc2c(Br)cccc2c1C1=NC(C)(C)C(Br)c2ccccc21 (stereo not shown) [Compound E-7, 4-bromo-1-(7-bromo-2-methyl-indazol-3-yl)-3,3-dimethyl-4H-isoquinoline] | – | – | – | ≥ 80 | – | –
8 | Cn1nc2ccccc2c1C1=NC(C)(C)C(F)(F)c2ccccc21 [Compound E-13, 4,4-difluoro-3,3-dimethyl-1-(2-methylindazol-3-yl)isoquinoline] | – | ≥ 80 | ≥ 80 | ≥ 80 | ≥ 80 | ≥ 80
9 | CC1(C)N=C(c2n[nH]c3ccccc23)c2cccc(F)c2C1(C)C [Compound E-14, 5-fluoro-1-(1H-indazol-3-yl)-3,3,4,4-tetramethyl-isoquinoline] | 174 to 177 | – | – | ≥ 80 | – | –
10 | Cn1nc2c(Br)cccc2c1C1=NC(C)(C)Cc2c(F)cccc21 [Compound E-15, 1-(7-bromo-2-methyl-indazol-3-yl)-5-fluoro-3,3-dimethyl-4H-isoquinoline] | 168 to 169 | ≥ 80 | – | ≥ 80 | – | ≥ 80
11 | Cn1nc2c(Br)cccc2c1C1=NC(C)(C)C(=O)c2c(F)cccc21 [Compound E-18, 1-(7-bromo-2-methyl-indazol-3-yl)-5-fluoro-3,3-dimethyl-isoquinolin-4-one] | 260 to 261 | – | – | – | – | ≥ 80
12 | Cn1nc2c(Br)cccc2c1C1=NC(C)(C)C(F)(F)c2c(F)cccc21 [Compound E-19, 1-(7-bromo-2-methyl-indazol-3-yl)-4,4,5-trifluoro-3,3-dimethyl-isoquinoline] | 198 to 199 | ≥ 80 | – | ≥ 80 | ≥ 80 | ≥ 80
13 | Cn1nc2c(Cl)c(Cl)ccc2c1C1=NC(C)(C)Cc2ccccc21 [Compound E-24, 1-(6,7-dichloro-2-methyl-indazol-3-yl)-3,3-dimethyl-4H-isoquinoline] | 197 to 199 | – | – | ≥ 80 | – | –
14 | Cc1c(Cl)ccc2c(C3=NC(C)(C)C(C)(C)c4c(F)cccc43)n(C)nc12 [Compound E-26, 1-(6-chloro-2,7-dimethyl-indazol-3-yl)-5-fluoro-3,3,4,4-tetramethyl-isoquinoline] | 136 to 142 | ≥ 80 | ≥ 80 | ≥ 80 | ≥ 80 | ≥ 80

Reference: patent publication US10329272B2 (priority 2015, dated 2019)
